PMC6478789, “A chemical toolbox for the study of bromodomains and epigenetic signaling” (Nature Communications, 2019)

Experiments:
[1] = biological target: BRDT(1) (Homo sapiens, UniProt Q58F21); set-up: purchased; details: ITC data; ref 7 (suppl.); cited from earlier work
[2] = system: three TNBC lines; assay: Combinatorial screen of BRD inhibitors with or without BAY-876 (confluency); type: cell-based, human; details: 3 μM probe + 3 μM BAY-876
Procedure: Fig. 6 BRD inhibitors leverage metabolic adaptations induced by glucose transporter I (GLUT1) inhibition in TNBC. a BRD inhibitor screening across ten TNBC cell lines. Cells were treated with indicated BRD inhibitors at 3 μM for 7 days. Confluency was measured using an IncuCyte ZOOM live cell imaging device. Data shown are mean ± s.d. of n = 4 independent cell culture grown and treated cells. A two-sided Student’s t test was used to derive the p-values. b SLC2A1 gene expression in the The Cancer Genome Atlas (TCGA) breast datasets. The cohorts were divided into TNBCs (red) and non-TNBCs (blue) according to PAM50 classification. Gene expression is reported as median-centered expression log2 values. The number of patients (n) per group is indicated. P-values were determined using a Wilcoxon's rank-sum test. c Glucose uptake in MDA-MB-436 cells in response to BAY-876 treatment relative to vehicle. MDA-MB-436 cells were treated with dimethyl sulfoxide (DMSO) or 3 µM BAY-876 for 5 days. Graph indicates mean, error bars denote s.d. from three independent assays and p-value was computed using the Benjamini-Hochberg t test; ***p < 0.001. d Effects of BAY-876 treatment on the intracellular acetyl-CoA level. Graph indicates mean, error bars denote s.d. from three independent assays and p-value was computed using the Benjamini-Hochberg t test; ***p < 0.001. e Effects of BAY-876 treatment on intracellular NAD^+/NADH level. Graph indicates the mean, error bars denote s.d. from three independent assays and p-value computed using the Benjamini-Hochberg t test; **p < 0.01. f Immunoblot analysis of H3 and H4 acetylation in MDA-MB-436 cells before and after BAY-876 treatment. P-value computed using the Benjamini-Hochberg t test; ***p < 0.001. g Cell growth effects of BAY-876 treatment on three representative cell lines. n.s. not significant. h Combinatorial screening of BRD inhibitors with or without 3 μM BAY-876 across ten TNBC cell lines. Cell confluency was obtained from the endpoint Incucyte scanning. (Left) Heatmap of the combinatorial screening results; (Right) Cell confluency after treatment with three potential BRDi candidates at 3 μM in the presence or absence of 3 μM BAY-876 in three representative cell lines. Graph indicates mean, error bars denote s.d. from three independent assays and p-values were computed using the Benjamini-Hochberg t test; **p < 0.01; ***p < 0.001. Raw data images are available in Supplementary Fig. 4
(§1) TNBC cell lines were seeded in sterile, transparent 384-well plates at 500 cells per well in 50 µl media. Chemical probes were delivered in dimethyl sulfoxide (DMSO). Cell confluency at 7 days was evaluated using an Incucyte ZOOM live cell imaging device (Essen Bioscence) and analyzed with the Incucyte ZOOM (2016A) software based on phase contrast image.

[3] = biological target: BRD3(2) (Homo sapiens, UniProt Q15059); set-up: purchased; details: ITC data; ref 7 (suppl.); cited from earlier work
Sequence of BRD3(2) (Q15059 306-415 limits assumed): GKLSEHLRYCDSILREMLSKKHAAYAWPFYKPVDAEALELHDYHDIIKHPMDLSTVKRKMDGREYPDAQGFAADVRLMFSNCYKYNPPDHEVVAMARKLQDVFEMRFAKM

[4] = biological target: BRDT(2) (Homo sapiens, UniProt Q58F21); set-up: purchased; method as in ref 7 (suppl.); details: ITC data; ref 7 (suppl.); cited from earlier work
[5] = biological target: GCN5L2 (Homo sapiens, UniProt Q92830); assay: Histone acetyltransferase (HAT) activity assay; type: biochemical;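 further: selectivity screen of BRD probe compounds across a panel of histone acetyltransferases, HAT activity in % with compound at 1 or 10 µM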
Sequence of GCN5L2 (Q92830 whole entry, species assumed): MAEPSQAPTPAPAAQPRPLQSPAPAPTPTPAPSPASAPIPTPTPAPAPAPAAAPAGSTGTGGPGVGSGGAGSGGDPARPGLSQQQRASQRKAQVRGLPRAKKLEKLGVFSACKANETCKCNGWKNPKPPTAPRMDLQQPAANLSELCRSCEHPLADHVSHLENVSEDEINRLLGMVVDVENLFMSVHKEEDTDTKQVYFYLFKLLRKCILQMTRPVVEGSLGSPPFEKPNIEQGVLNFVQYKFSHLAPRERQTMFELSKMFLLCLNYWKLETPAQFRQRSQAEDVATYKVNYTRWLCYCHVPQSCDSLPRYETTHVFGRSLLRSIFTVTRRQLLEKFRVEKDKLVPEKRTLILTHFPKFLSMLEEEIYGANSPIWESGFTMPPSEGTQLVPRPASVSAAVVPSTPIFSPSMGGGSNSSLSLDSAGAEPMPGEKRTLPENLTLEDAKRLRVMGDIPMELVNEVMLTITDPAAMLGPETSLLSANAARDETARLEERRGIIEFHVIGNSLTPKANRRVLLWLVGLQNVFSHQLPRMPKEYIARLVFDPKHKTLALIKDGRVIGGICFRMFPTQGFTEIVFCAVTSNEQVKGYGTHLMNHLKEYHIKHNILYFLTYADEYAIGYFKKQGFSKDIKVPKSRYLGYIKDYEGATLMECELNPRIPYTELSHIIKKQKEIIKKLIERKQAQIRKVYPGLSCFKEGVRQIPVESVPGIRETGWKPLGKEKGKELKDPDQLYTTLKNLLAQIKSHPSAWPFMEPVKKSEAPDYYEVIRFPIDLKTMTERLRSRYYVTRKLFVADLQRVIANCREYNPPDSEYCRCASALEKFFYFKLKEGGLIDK

[6] = biological target: EP300 (Homo sapiens, UniProt Q09472); assay: Histone acetyltransferase (HAT) activity assay; type: biochemical;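 further: selectivity screen of bromodomain probe compounds against histone acetyltransferases, with enzyme activity given in percent for compounds tested at 1 and 10 µM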
[7] = biological target: BRD2(1) (Homo sapiens, UniProt P25440); set-up: purchased; details: ITC data; ref 7 (suppl.); cited from earlier work
Sequence of BRD2(1) (P25440 74-180 limits assumed): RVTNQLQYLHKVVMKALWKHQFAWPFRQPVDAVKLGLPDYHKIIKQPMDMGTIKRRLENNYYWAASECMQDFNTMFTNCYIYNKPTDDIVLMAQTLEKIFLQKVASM

[8] = biological target: T1, MYST1 (Homo sapiens, UniProt Q9H7Z6); assay: Histone acetyltransferase (HAT) activity assay; type: biochemical;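 further: selectivity screen across a panel of histone acetyltransferases, with compounds tested at 1 and 10 µM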
T1 sequence (Q9H7Z6 1-458): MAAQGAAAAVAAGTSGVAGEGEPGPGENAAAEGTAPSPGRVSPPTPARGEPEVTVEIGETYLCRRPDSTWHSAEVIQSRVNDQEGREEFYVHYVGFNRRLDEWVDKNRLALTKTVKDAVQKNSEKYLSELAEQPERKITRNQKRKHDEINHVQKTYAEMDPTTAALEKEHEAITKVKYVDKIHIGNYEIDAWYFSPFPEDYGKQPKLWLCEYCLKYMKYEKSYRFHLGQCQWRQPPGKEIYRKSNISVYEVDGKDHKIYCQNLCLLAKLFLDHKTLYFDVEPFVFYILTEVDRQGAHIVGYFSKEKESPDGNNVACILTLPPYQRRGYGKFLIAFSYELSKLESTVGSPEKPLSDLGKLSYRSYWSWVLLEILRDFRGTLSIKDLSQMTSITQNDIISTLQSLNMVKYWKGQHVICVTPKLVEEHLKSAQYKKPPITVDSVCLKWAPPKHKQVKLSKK

[9] = biological target: BRD2(2) (Homo sapiens, UniProt P25440); set-up: purchased; method as in ref 7 (suppl.); details: ITC data; ref 7 (suppl.); cited from earlier work
Sequence of BRD2(2) (P25440 344-453 limits assumed): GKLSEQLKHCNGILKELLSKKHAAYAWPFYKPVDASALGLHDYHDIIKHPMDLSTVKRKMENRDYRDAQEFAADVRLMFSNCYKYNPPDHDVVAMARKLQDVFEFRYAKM

[10] = biological target: BRD3(1) (Homo sapiens, UniProt Q15059); set-up: purchased; details: ITC data; ref 7 (suppl.); cited from earlier work
Sequence of BRD3(1) (Q15059 34-140 limits assumed): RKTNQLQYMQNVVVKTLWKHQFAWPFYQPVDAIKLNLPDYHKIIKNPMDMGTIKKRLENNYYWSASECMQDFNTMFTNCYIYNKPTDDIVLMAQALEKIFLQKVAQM

[11] = biological target: MYST3 (Homo sapiens, UniProt Q92794); assay: Histone acetyltransferase (HAT) activity assay; type: biochemical;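 further: selectivity screen of bromodomain probe compounds across a panel of histone acetyltransferases, read out as enzyme activity in %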
Sequence of MYST3 (Q92794 whole entry, species assumed): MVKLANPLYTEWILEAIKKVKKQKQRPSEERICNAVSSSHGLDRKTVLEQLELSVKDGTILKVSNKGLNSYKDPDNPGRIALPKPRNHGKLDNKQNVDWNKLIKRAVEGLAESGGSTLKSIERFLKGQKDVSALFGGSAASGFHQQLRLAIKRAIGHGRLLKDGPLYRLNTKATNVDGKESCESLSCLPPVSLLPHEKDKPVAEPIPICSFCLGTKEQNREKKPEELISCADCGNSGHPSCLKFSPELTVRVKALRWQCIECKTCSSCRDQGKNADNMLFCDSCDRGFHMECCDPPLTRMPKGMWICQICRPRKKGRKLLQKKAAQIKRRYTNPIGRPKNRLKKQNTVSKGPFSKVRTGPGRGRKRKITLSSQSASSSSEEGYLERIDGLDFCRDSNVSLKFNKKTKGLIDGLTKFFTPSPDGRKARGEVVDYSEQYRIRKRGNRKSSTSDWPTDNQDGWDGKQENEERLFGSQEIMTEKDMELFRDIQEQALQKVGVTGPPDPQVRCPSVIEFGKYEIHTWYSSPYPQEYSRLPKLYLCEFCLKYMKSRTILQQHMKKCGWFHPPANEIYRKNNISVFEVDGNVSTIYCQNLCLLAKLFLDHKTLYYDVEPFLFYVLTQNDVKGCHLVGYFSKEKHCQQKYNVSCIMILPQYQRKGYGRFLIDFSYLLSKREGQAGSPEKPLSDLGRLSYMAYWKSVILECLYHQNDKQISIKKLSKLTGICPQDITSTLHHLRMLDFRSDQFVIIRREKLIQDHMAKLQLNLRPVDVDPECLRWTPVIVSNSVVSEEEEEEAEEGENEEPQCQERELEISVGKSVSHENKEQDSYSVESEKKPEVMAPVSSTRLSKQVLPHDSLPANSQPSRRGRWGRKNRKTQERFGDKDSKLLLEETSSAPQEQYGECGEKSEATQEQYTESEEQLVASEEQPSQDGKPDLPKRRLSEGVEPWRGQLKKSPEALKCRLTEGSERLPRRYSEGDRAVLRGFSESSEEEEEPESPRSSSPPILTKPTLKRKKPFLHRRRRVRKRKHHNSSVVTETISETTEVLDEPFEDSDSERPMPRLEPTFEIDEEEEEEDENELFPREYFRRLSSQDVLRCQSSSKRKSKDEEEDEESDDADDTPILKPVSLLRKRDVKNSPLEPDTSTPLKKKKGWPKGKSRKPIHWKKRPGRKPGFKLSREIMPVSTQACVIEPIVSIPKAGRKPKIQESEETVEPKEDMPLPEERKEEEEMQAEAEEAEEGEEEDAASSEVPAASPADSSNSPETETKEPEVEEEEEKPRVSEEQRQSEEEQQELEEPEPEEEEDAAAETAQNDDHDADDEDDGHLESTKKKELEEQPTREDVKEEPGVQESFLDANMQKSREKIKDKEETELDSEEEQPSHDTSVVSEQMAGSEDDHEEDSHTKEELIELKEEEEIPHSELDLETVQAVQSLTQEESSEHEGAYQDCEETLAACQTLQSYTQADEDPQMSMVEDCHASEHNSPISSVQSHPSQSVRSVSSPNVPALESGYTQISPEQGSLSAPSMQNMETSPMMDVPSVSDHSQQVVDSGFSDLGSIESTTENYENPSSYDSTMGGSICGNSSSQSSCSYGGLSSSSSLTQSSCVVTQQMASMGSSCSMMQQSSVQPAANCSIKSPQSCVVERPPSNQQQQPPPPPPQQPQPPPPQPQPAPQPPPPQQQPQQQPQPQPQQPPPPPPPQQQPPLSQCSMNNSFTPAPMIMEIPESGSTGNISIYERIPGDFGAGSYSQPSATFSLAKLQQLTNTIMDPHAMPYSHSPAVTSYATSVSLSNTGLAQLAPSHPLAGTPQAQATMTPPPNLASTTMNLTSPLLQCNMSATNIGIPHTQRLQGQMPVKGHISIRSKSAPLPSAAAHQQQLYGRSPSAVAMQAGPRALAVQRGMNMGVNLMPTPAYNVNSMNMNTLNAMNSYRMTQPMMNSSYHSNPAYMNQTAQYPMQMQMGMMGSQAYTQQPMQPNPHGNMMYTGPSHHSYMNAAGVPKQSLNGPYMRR

[12] = biological target: T2, HAT1 (Homo sapiens, UniProt O14929); assay: Histone acetyltransferase (HAT) activity assay; type: biochemical;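 further: HAT selectivity screen of BRD probe compounds, enzyme activity in % measured with compound at 1 µM and 10 µM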
T2 sequence (O14929 1-419): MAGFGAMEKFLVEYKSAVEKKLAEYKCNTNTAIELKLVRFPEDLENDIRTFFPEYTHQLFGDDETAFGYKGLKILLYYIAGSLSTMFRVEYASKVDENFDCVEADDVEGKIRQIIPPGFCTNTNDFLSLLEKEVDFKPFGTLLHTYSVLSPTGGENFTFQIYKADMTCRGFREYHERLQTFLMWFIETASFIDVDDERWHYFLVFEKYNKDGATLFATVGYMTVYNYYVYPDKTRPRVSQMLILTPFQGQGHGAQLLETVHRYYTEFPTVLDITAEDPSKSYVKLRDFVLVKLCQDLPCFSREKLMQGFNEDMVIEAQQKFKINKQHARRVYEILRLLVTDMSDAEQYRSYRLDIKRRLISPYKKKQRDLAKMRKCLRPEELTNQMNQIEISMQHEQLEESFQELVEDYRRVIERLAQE

[13] = system: ten TNBC cell lines; assay: High-throughput screening of bromodomain inhibitors in TNBC panel (confluency); type: cell-based, human; details: 3 μM, 7 days
Procedure: Fig. 6 BRD inhibitors leverage metabolic adaptations induced by glucose transporter I (GLUT1) inhibition in TNBC. a BRD inhibitor screening across ten TNBC cell lines. Cells were treated with indicated BRD inhibitors at 3 μM for 7 days. Confluency was measured using an IncuCyte ZOOM live cell imaging device. Data shown are mean ± s.d. of n = 4 independent cell culture grown and treated cells. A two-sided Student’s t test was used to derive the p-values. b SLC2A1 gene expression in the The Cancer Genome Atlas (TCGA) breast datasets. The cohorts were divided into TNBCs (red) and non-TNBCs (blue) according to PAM50 classification. Gene expression is reported as median-centered expression log2 values. The number of patients (n) per group is indicated. P-values were determined using a Wilcoxon's rank-sum test. c Glucose uptake in MDA-MB-436 cells in response to BAY-876 treatment relative to vehicle. MDA-MB-436 cells were treated with dimethyl sulfoxide (DMSO) or 3 µM BAY-876 for 5 days. […]
TNBC cell lines were seeded in sterile, transparent 384-well plates at 500 cells per well in 50 µl media. […] Cell confluency at 7 days was evaluated using an Incucyte ZOOM live cell imaging device (Essen Bioscence) and analyzed with the Incucyte ZOOM (2016A) software based on phase contrast image.

[14] = system: MDA-MB-436 cells; assay: Confluency with BRPF inhibitors and BAY-876; type: cell-based, human; details: 3 μM, 7 days
Procedure: Graph indicates mean, error bars denote s.d. from eight wells (from two independent assays) and p-value was computed using the Benjamini-Hochberg t test; ***p < 0.001. d Immunoblot validation of BRPF knockdown in MDA-MB-436 cells. e Quantitative real-time PCR (RT-qPCR) validation of BRPF knockdown in MDA-MB-436 cells. […] Raw data images are available in Supplementary Fig. 4
as §1

| HATs Activity (%) ([5]; 1µM) | HATs Activity (%) ([5]; 10µM) | HATs Activity (%) ([6]; 1µM) | HATs Activity (%) ([6]; 10µM) | HATs Activity (%) ([8]; 1µM) | HATs Activity (%) ([8]; 10µM) | HATs Activity (%) ([11]; 1µM) | HATs Activity (%) ([11]; 10µM) | HATs Activity (%) ([12]; 1µM) | HATs Activity (%) ([12]; 10µM) | Structure (SMILES) | Kd [1] [nM] | viability in combination with BAY-876 [2] | Kd [3] [nM] | Kd [4] [nM] | Kd [7] [nM] | Kd [9] [nM] | Kd [10] [nM] | anti-proliferative effect (confluency) [13] | synergy with BAY-876 [14] |
| --- | --- | --- | --- | --- | --- | --- | --- | --- | --- | --- | --- | --- | --- | --- | --- | --- | --- | --- | --- |
| 96 | 93 | 99 | 100 | 101 | 95 | 105 | 86 | 102 | 93 | COc1ccccc1S(=O)(=O)Nc1ccc2c(c1)CN(C)C(=O)N2 [PFI-1] | 85 | significant decrease in viability | 76 | 221 | 108 | 144 | 80 | strong anti-proliferative effects |  |
|  |  |  |  |  |  |  |  |  |  | COc1ccccc1C(=O)Nc1cc2c(cc1N1CCCC1)n(C)c(=O)n2C [PFI-4] |  |  |  |  |  |  |  |  | no significant effect |
